Assay results published in ChEMBL document CHEMBL5033994, “Fragment-Based Optimization of Dihydropyrazino-Benzimidazolones as Metabotropic Glutamate Receptor-2 Positive Allosteric Modulators against Migraine” (J Med Chem, 2021).
≈ marks a conversion by molar mass, not a printed value.

Assays:
[1] = in vivo; settings: Wistar, rat, po, 10 mg/kg
[2] = physchem; settings: buffer, pH 7.4
[3] = in vivo; settings: Wistar, rat, po, 10 mg/kg; remark: listed apart in the source
[4] = in vivo; settings: Wistar, rat, brain/plasma, po, 10 mg/kg
[5] = in vivo; settings: Wistar, rat, iv, 3 mg/kg
[6] = in vivo; settings: Wistar, rat, iv, 3 mg/kg; remark: listed apart in the source
[7] = in vivo; settings: Wistar, rat, iv, 3 mg/kg; remark: listed apart in the source
[8] = in vivo; settings: Wistar, rat, po, 10 mg/kg; remark: listed apart in the source
[9] = in vivo; settings: Wistar, rat, po, 10 mg/kg; remark: listed apart in the source
[10] = physchem; settings: buffer, pH 7.4; remark: listed apart in the source
[11] = in vivo; settings: Wistar, rat, po, 10 mg/kg; remark: listed apart in the source

O=C1c2nc3cccc(C(F)(F)F)c3n2CCN1CC1CCC1
half-life [1]: 54.6 min | logD [2]: 3.09 | bioavailability [3]: 67% | Kp [4]: 1.02 | half-life [5]: 15.6 min | AUC(0-t) at 2 h [6]: 833 ng·h/mL | clearance [7]: 60 mL/min/kg | Tmax [8]: 30 min | AUC(0-t) at 5 h [9]: 1820 ng·h/mL | solubility [10]: 43 µg/mL (≈ 133 µM) | Cmax [11]: 1360 ng/mL
